Here are results for four compounds from US7629002B2, “Antimicrobial polymeric compositions and method of treatment using them” (Chemeq Ltd., priority 2000, dated 2009).

One data set deals with S. aureus. Kind of data set: MKC of preservatives and synergy (Example 14). In kind it is cell-based. On the procedure:
(§1) Overnight broths of challenge cultures were prepared and the Total Viable Count (TVC) of the overnight cultures was estimated.
(§2) The samples were serially diluted 1 to 1 using sterile normal saline (5 mL). Sterile Hard Water (SHW) was used as diluent when testing samples containing EDTA.
(§3) 1 part of each overnight culture was diluted in 9 parts diluent. The resulting diluted suspensions were used as the inocula.
(§4) Inoculate each sample dilution with 100 μL of the diluted overnight culture. (One culture per tube). Mix well.
(§5) The tubes were incubated for ≦24 hours at 37° C. (A. niger was incubated at 28° C. for ≦24 hours).
(§6) From each test tube, 1 mL was subcultured into 9 mL of recovery broth and mixed well (Recovery Broths: Nutrient Broth+3% Tween 80 (NBT) for polymeric antimicrobial and EDTA; Nutrient Broth+3% Tween 80+(NBTA) for glutaraldehyde and, Letheen Broth (LB) for methyl parabens).
(§7) The samples incubated at 37° C. for a further ≦48 hours. (28° C. for ≦5 days for A niger).
(§8) Each tube was examined for growth. All tubes were then subcultured onto selective agar and incubated for ≦24 hours at 37° C. (28° C. for ≦5 days for A. niger). Growth on selective agar was taken to confirm growth of the test organism.

The next data set has as its system P. aeruginosa. Description: MKC of preservatives and synergy (Example 14). In kind it is cell-based. On the procedure: as §1, §2, §3, §4, §5, §6, §7, §8
Another data set deals with E. coli. Description: MKC of preservatives and synergy (Example 14). In kind it is cell-based. On the procedure:
as §1, §2, §3, §4, §5, §6, §7, §8

The next data set concerns A. niger. Kind of data set: MKC of preservatives and synergy (Example 14). In kind it is cell-based. The settings on record: polymer 0.2% w/w. On the procedure:
as §1, §2, §3, §4, §5, §6, §7, §8

A further data set deals with C. albicans. Description: MKC of preservatives and synergy (Example 14). The format is cell-based. The conditions noted are these: polymer 0.2% w/w, mix as ratio. On the procedure: as §1, §2, §3, §4, §5, §6, §7, §8
For data set [1] the following is noted: in vivo.
Description: Chickens treated each of the antimicrobials were compared with a control group according to the following procedure:
In each trial 20 Cob chickens (Line 53), day old were purchased from a commercial hatchery. They were weighed, sexed and randomly assigned into adjacent pens in a room of an isolated animal house. There was an even distribution of male and female chickens. Water and feed were available ad libitum. The diet was a commercial crumble (Chick Starter, Milne Feeds: 18% crude protein) with a coccidiostat present (125 ppm Dinitolomide).
Ten chickens were administered the formulation of 0.1% w/w of normally activated antimicrobial from Example 10a in the water for 14 days through static drinkers; dose rate of 30 mg/kg/day. The other ten chickens were the Control Group.
Both groups of chickens were weighed on days 0, 4, 7, 11 and 14. At the completion of the trial all chickens were euthanised, and the treated chickens were autopsied post mortem. A thorough gross examination of the thoracic and abdominal cavities was performed.

For the compound `O=CCCCC=O` [Glutaraldehyde], the MKC in the data set with S. aureus (inoculum 1.5 × 10^9 cfu/mL, polymer 0.025% w/w, Glutaraldehyde 0.025% w/w) was 7; with P. aeruginosa (inoculum 1.9 × 10^9 cfu/mL, polymer 0.025% w/w, Glutaraldehyde 0.025% w/w), 31; with E. coli (inoculum 1.6 × 10^9 cfu/mL, polymer 0.025% w/w, Glutaraldehyde 0.025% w/w) it was 3.5; in the data set with A. niger (inoculum 3.3 × 10^7 cfu/mL, Glutaraldehyde 0.025% w/w start solutions, mix as ratio polymeric antimicrobial:preservative), above 250; with C. albicans (inoculum 3.0 × 10^6 cfu/mL, Glutaraldehyde 0.025% w/w), 125.

For `O=C(O)CN(CCN(CC(=O)O)CC(=O)O)CC(=O)O` [EDTA], the MKC is above 1000 with S. aureus (inoculum 1.3 × 10^9 cfu/mL, polymer 0.2% w/w, EDTA 0.1% w/w, mix as ratio); 1000 in the data set with P. aeruginosa (inoculum 9.4 × 10^8 cfu/mL, polymer 0.2% w/w, EDTA 0.1% w/w, mix as ratio); above 1000 in the data set with E. coli (inoculum 1.0 × 10^9 cfu/mL, polymer 0.2% w/w, EDTA 0.1% w/w, mix as ratio); above 1000 in the data set with A. niger (inoculum 3.0 × 10^7 cfu/mL, EDTA 0.1% w/w, mix as ratio polymeric antimicrobial:preservative); 1000 in the data set on C. albicans (inoculum 3.2 × 10^6 cfu/mL, EDTA 0.1% w/w).

Consider “poly(2-propenal, 2-propenoic acid) [Example 10a]”, for which the “clinical or pathological signs of toxicity at gross examination post-mortem” value in data set [1] is on record as “no clinical or pathological signs of toxicity were evident”.

In the case of `COC(=O)c1ccc(O)cc1` [Methyl Paraben], the MKC worked out at 2500 with S. aureus (inoculum 1.3 × 10^9 cfu/mL, polymer 0.2% w/w, Methyl Paraben 1% w/w, in 80% w/w glycerol, mix as ratio); 1250 in the data set with P. aeruginosa (inoculum 1.8 × 10^9 cfu/mL, polymer 0.2% w/w, Methyl Paraben 1% w/w, in 80% w/w glycerol, mix as ratio); 2500 in the data set with E. coli (inoculum 9.6 × 10^8 cfu/mL, polymer 0.2% w/w, Methyl Paraben 1% w/w, in 80% w/w glycerol, mix as ratio); 10000 in the data set on A. niger (inoculum 2.2 × 10^7 cfu/mL, Methyl Paraben 1% w/w, in 80% w/w glycerol, mix as ratio); 1250 in the data set on C. albicans (inoculum 1.1 × 10^7 cfu/mL, Methyl Paraben 1% w/w, in 80% w/w glycerol).
